Source: patent US9096624B2 (OSI Pharmaceuticals, LLC, priority 2009, dated 2015)

Experiments:
[1] = molecular target: T1, FAK (Homo sapiens, UniProt Q05397); assay: Cell-based capture ELISA for inhibition of FAK autophosphorylation [pY397] in MiaPaCa2 cells
Description: Cell-Based Assays for Inhibition of FAK Autophosphorylation: MiaPaCa2 and U87MG
ELISA kit from Invitrogen (KHO0441).
Reagents Provided in Biosource FAK [pY397]
The cells were then suspended in cell assay medium.

[2] = molecular target: T1, FAK; assay: biochemical
[3] = molecular target: T1, FAK; assay: Biochemical HTRF (FRET) assay of FAK kinase activity; settings: 100 uM ATP; biotinylated PGT substrate; read-out: Mean FAK Biochem FRET IC50 (100 uM ATP)
Description: Biochemical HTRF (FRET) Assay Protocol
The ability of compounds to inhibit the kinase activity of recombinant FAK enzyme was determined by a HTRF (FRET) assay using Biotinylated PGT (B*PGT) as a peptide substrate. […] The reaction is stopped after 1 h and phosphotyrosine content of Biotin*PGT is measured using anti-phosphotyrosine specific Mab label with Eu3+-cryptate (Cisbio) and XL665 labeled streptavidin (Cisbio) by Homogeneous Time-Resolved Fluorescence (HTRF) method.
The Stock Reagents used are as follows:
Enzyme Buffer Reaction Buffer plus 0.03% BSA.
Development Buffer: 1 part 200 mM EDTA/50 mM Tris-HCl pH 7.4; 2 parts 1M KF; 0.07% BSA.
Assay Protocol: The compounds were serially diluted from 10 uM to […] (1:5 dil, 10 points) in kinase buffer (1×) containing 3% DMSO and added 5 uL to each well of a 384-well plate except negative and positive control wells. Only DMSO was added to positive and negative control wells. For negative control wells, no ATP was added but only 5 uL of B*PGT was added. B*PGT (final conc 7.5 ng/well) and ATP (final conc 100 uM) was added in 5 uL to all wells except negative control wells. Reaction was started by adding FAK enzyme (final conc 0.2 ng/well) in 5 ul of enzyme buffer per well and incubated at RT for 1 h. Phospho-tyrosine content of B*BGT was detected by adding PT66-Cryptate (1:100 dil) and XL665 conjugated streptavidin (1:100 dil) to each well in 7.5 uL development buffer and incubating for 1 h at RT. The plate was read on Victor machine

[4] = molecular target: T1, FAK; assay: Cell-based capture ELISA for inhibition of FAK autophosphorylation [pY397] in U87MG cells; settings: Mean FAK Cell Mechanistic IC50 + 50% mP U87MG, + 50% mouse plasma
[5] = MIA-PaCa2 cells on fibronectin, 2 h, no plasma, read-out: Mean FAK Cell Mechanistic IC50 MIA-PaCa2
[6] = MIA-PaCa2 cells, + 50% human plasma, read-out: Mean FAK Cell Mechanistic IC50 + 50% hP MIA-PaCa2
[7] = MIA-PaCa2 cells, + 50% mouse plasma (Table 2), read-out: Mean FAK Cell Mechanistic IC50 + 50% mP MIA-PaCa2
[8] = MIA-PaCa2 cells, + 50% mouse plasma (Table 3), read-out: Mean FAK Cell Mechanistic IC50 + 50% mP MIA-PaCa2

T1 sequence (Q05397 whole entry): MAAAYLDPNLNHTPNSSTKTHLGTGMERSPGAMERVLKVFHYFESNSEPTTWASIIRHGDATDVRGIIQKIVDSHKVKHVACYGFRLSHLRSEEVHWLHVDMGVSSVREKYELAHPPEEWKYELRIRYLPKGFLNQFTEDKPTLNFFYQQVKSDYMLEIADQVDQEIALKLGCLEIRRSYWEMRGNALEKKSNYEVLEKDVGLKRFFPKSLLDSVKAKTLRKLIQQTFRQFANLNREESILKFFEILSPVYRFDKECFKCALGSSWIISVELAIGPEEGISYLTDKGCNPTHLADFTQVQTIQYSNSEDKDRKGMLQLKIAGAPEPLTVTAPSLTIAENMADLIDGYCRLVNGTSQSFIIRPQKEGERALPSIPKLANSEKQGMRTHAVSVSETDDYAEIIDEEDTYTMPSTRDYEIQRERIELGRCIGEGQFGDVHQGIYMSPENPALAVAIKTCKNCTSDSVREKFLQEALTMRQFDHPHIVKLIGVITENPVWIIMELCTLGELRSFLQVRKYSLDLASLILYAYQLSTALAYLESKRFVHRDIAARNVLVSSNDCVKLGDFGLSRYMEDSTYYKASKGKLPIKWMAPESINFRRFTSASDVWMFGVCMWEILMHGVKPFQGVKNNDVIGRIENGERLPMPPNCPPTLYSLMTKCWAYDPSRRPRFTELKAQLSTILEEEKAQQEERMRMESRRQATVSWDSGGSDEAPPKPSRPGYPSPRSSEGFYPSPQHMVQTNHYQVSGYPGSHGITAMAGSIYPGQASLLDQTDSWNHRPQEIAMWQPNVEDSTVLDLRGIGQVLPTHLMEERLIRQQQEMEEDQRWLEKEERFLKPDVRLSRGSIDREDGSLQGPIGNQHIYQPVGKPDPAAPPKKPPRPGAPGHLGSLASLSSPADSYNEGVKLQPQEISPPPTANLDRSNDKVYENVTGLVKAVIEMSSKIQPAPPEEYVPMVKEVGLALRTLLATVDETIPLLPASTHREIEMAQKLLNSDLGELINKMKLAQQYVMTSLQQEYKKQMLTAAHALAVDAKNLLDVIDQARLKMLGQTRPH

Compound | IC50 [1, 5] | IC50 [1, 6] | IC50 [2] | IC50 [3] | IC50 [1, 7] | IC50 [1, 8] | IC50 [4]
CCOP(=O)(Cc1ccc(Nc2ncc(C(F)(F)F)c(NCc3cccnc3N(C)S(C)(=O)=O)n2)cc1)OCC [Example 1, diethyl [4-({4-[({2-[methyl(methylsulfonyl)amino]pyridin-3-yl}methyl)amino]-5-(trifluoromethyl)pyrimidin-2-yl}amino)benzyl]phosphonate] | < 1000 nM | < 1000 nM | < 1000 nM | < 1000 nM |  |  | 
CCOP(=O)(OCC)c1ccc(Nc2ncc(C(F)(F)F)c(NCc3cccnc3N(C)S(C)(=O)=O)n2)cc1 [Example 2, Diethyl [4-({4-[({2-[methyl(methylsulfonyl)amino]pyridin-3-yl}methyl)amino]-5-(trifluoromethyl)pyrimidin-2-yl}amino)phenyl]phosphonate] |  |  |  | 1000 to 10000 nM |  |  | 
CCOP(=O)(Cc1cccc(Nc2ncc(C(F)(F)F)c(NCc3cccnc3N(C)S(C)(=O)=O)n2)c1)OCC [Example 4, Diethyl [3-({4-[({2-[methyl(methylsulfonyl)amino]pyridin-3-yl}methyl)amino]-5-(trifluoromethyl)pyrimidin-2-yl}amino)benzyl]phosphonate] | 1000 to 10000 nM | 1000 to 10000 nM | < 1000 nM | 1000 to 10000 nM |  |  | 
CCOP(=O)(OCC)C(C)c1ccc(Nc2ncc(C(F)(F)F)c(NCc3cccnc3N(C)S(C)(=O)=O)n2)cc1 (stereo not drawn) [Example 5, Diethyl {1-[4-({4-[({2-[methyl(methylsulfonyl)amino]pyridin-3-yl}methyl)amino]-5-(trifluoromethyl)pyrimidin-2-yl}amino)phenyl]ethyl}phosphonate] | < 1000 nM | < 1000 nM |  | < 1000 nM |  |  | 
CN(c1ncccc1CNc1nc(Nc2ccc(P(=O)(O)O)cc2)ncc1C(F)(F)F)S(C)(=O)=O [Example 6, [4-({4-[({2-[Methyl(methylsulfonyl)amino]pyridin-3-yl}methyl)amino]-5-(trifluoromethyl)pyrimidin-2-yl}amino)phenyl]phosphonic acid] | 1000 to 10000 nM |  | < 1000 nM | < 1000 nM |  |  | 
CCOP(=O)(OCC)C(C)(C)c1ccc(Nc2ncc(C(F)(F)F)c(NCc3cccnc3N(C)S(C)(=O)=O)n2)cc1 [Example 7] | < 1000 nM | < 1000 nM |  | < 1000 nM |  |  | 
CC(C)OP(=O)(Cc1ccc(Nc2ncc(C(F)(F)F)c(NCc3cccnc3N(C)S(C)(=O)=O)n2)cc1)OC(C)C [Example 27, dipropan-2-yl [4-({4-[({2-[methyl(methylsulfonyl)amino]pyridin-3-yl}methyl)amino]-5-(trifluoromethyl)pyrimidin-2-yl}amino)benzyl]phosphonate] | 1000 to 10000 nM | 1000 to 10000 nM |  | 1000 to 10000 nM | 1000 to 10000 nM |  | 
CN(c1ncccc1CNc1nc(Nc2ccc(CP(=O)(O)O)cc2)ncc1C(F)(F)F)S(C)(=O)=O [Example 41, [4-({4-[({2-[Methyl(methylsulfonyl)amino]pyridin-3-yl}methyl)amino]-5-(trifluoromethyl)pyrimidin-2-yl}amino)benzyl]phosphonic acid] | 1000 to 10000 nM | 1000 to 10000 nM | < 1000 nM | 1000 to 10000 nM | 1000 to 10000 nM |  | 
CCOP(C)(=O)Cc1cccc(Nc2ncc(C(F)(F)F)c(NCc3cccnc3N(C)S(C)(=O)=O)n2)c1 (stereo not drawn) [Example 46, Ethyl methyl[3-({4-[({2-[methyl(methylsulfonyl)amino]pyridin-3-yl}methyl)amino]-5-(trifluoromethyl)pyrimidin-2-yl}amino)benzyl]phosphinate] | < 1000 nM | < 1000 nM |  | 1000 to 10000 nM |  |  | 
CCCP(=O)(CCC)c1cccc(Nc2ncc(C(F)(F)F)c(Nc3ccc([C@H]4CC[C@H](O)CC4)c4c3C(=O)N(C)C4)n2)c1 [Example 171, 7-{[2-{[3-(Dipropylphosphoryl)phenyl]amino}-5-(trifluoromethyl)pyrimidin-4-yl]amino}-4-(trans-4-hydroxycyclohexyl)-2-methyl-2,3-dihydro-1H-isoindol-1-one] |  |  | < 1000 nM |  |  | < 1000 nM | < 1000 nM
CCOP(=O)(Cc1ccc(Nc2ncc(C(F)(F)F)c(Nc3cccc4[nH]cc(C)c(=O)c34)n2)c(OC)c1)OCC [Example 204, Diethyl [3-methoxy-4-({4-[(3-methyl-4-oxo-1,4-dihydroquinolin-5-yl)amino]-5-(trifluoromethyl)pyrimidin-2-yl}amino)benzyl]phosphonate] |  |  | < 1000 nM |  |  | < 1000 nM | < 1000 nM
CNC(=O)c1ccccc1Nc1nc(Nc2ccc(CP(C)(=O)OCCOC)cc2OC)ncc1C(F)(F)F (stereo not drawn) [Example 216, 2-Methoxyethyl (3-methoxy-4-{[4-{[2-(methylcarbamoyl)phenyl]amino}-5-(trifluoromethyl)pyrimidin-2-yl]amino}benzyl)methylphosphinate] |  |  | < 1000 nM |  |  | < 1000 nM | < 1000 nM
CCOP(=O)(Cc1ccc(Nc2ncc(C(F)(F)F)c(Nc3cccnc3C(=O)NC)n2)c(OC)c1)OCC [Example 231, Diethyl (3-methoxy-4-{[4-{[2-(methylcarbamoyl)pyridin-3-yl]amino}-5-(trifluoromethyl)pyrimidin-2-yl]amino}benzyl)phosphonate] |  |  | < 1000 nM |  |  | < 1000 nM | < 1000 nM
CCOP(=O)(Cc1ccc(Nc2ncc(C(F)(F)F)c(Nc3ccc(C4CCC(N(C)CC)CC4)c4c3C(=O)N(C)C4)n2)c(OC)c1)OCC (stereo not drawn) [Example 236, Diethyl [4-({4-[(7-{4-[ethyl(methyl)amino]cyclohexyl}-2-methyl-3-oxo-2,3-dihydro-1H-isoindol-4-yl)amino]-5-(trifluoromethyl)pyrimidin-2-yl}amino)-3-methoxybenzyl]phosphonate] |  |  | < 1000 nM |  |  | < 1000 nM | < 1000 nM
CCOP(=O)(Cc1ccc(Nc2ncc(C(F)(F)F)c(Nc3ccc([C@H]4CC[C@H](O)CC4)c4c3C(=O)N(C)C4)n2)cn1)OCC [Example 260, Diethyl [(5-{[4-{[7-(trans-4-hydroxycyclohexyl)-2-methyl-3-oxo-2,3-dihydro-1H-isoindol-4-yl]amino}-5-(trifluoromethyl)pyrimidin-2-yl]amino}pyridin-2-yl)methyl]phosphonate] |  |  | < 1000 nM |  |  | < 1000 nM | < 1000 nM
CCOP(=O)(Cc1ccc(Nc2ncc(C(F)(F)F)c(Nc3ccc([C@H]4CC[C@H](O)CC4)c4c3C(=O)N(C)C4)n2)nc1)OCC [Example 309, Diethyl [(6-{[4-{[7-(trans-4-hydroxycyclohexyl)-2-methyl-3-oxo-2,3-dihydro-1H-isoindol-4-yl]amino}-5-(trifluoromethyl)pyrimidin-2-yl]amino}pyridin-3-yl)methyl]phosphonate] |  |  | < 1000 nM |  |  | < 1000 nM | < 1000 nM
